Laboratory results published in US20240188566A1, “Biocidal Composition and Method” (ARXADA, LLC, priority 2021, published 2024).
Marks after values point to notes of the source that are not given here.

Experiments:
Format in all cases: cell-based
[1] = system: Pseudomonas aeruginosa, Escherichia coli, Enterobacter cloacae, Acinetobacter calcoaceticus; assay: In-can challenge test, modified ASTM D2574-97 (Table 1)
Experimental: (§1) Various formulations were made in accordance with the present disclosure and tested for performance. In one challenge test, the efficacy of dicyandiamide as an adjuvant for BIT was evaluated using modified ASTM D2574-97 “Standard Test Method for Resistance of Emulsion Paints in the Container to Attack by Microorganisms” with higher inoculation volumes and frequency. A standard consortium of four (4) bacterial populations: Pseudomonas aeruginosa, Escherichia coli, Enterobacter cloacae, Acinetobacter calcoaceticus was used to inoculate three (3) different samples at ten percent (10%), five percent (5%), or two and a half percent (2.5%) of the sample size. At twenty-four (24) hours and seventy-two (72) hours after each inoculation, a portion of each sample was streaked on tryptic soy agar. A dilution plate count was performed at the last seventy-two (72) hour time point.
(§2) Example data provided in Tables 1, 2 and 3 should be understood as indicating the degree of microbial growth observed for a given data point unless otherwise indicated. In particular, each plate is ranked from 0 through 5c (i.e., one of 0, 1, 2, 3, 4, 5, or 5c) according to the degree of observed microbial growth, where: a “0” ranking indicates no growth; a “1” ranking indicates one (1) through five (5) observed colony forming unit (cfu), i.e., the plate was very lightly contaminated; a “2” ranking indicates six (6) through fifteen (15) cfu, i.e., the plate was lightly contaminated; a “3” ranking indicates sixteen (16) through thirty (30) cfu, i.e., the plate was moderately contaminated; a “4” ranking indicates thirty-one (31) through forty-five (45) cfu, i.e., the plate was heavily contaminated; a “5” ranking indicates greater than (45) cfu, i.e., the plate was severely contaminated; and a “5c” ranking indicates confluent growth, i.e., the plate was very severely contaminated. Thus, for instance, Table 1, Challenge 1 at 24 h for BIT 50 ppm has a value of 5 indicating greater than forty-five (45) cfu were observed. As another example for illustration, Table 1, Challenge 1 at 24 h for dicyandiamide 5,000 ppm+BIT 50 ppm has a value of 1 indicating one (1) through five (5) cfu was observed.

[2] = system: Pseudomonas aeruginosa, Escherichia coli, Enterobacter cloacae, Acinetobacter calcoaceticus; assay: Repeat in-can challenge test, same conditions (Table 2); conditions: Dicyandiamide 5,000 ppm
Experimental: as §1, §2

[3] = system: microbial growth; assay: In-can challenge test of dicyandiamide as adjuvant for MIT (Table 3); conditions: for degree of microbial growth (plate ranking) / passing result of challenge test: Dicy 0
Source text: However, using a combination of MIT and dicyandiamide can allow for effective microbial control at MIT concentrations as low as 20 ppm.
as §2

In the case of `N#CN=C(N)N` [Dicyandiamide, 2-cyanoguanidine], the “degree of microbial growth (plate ranking)” value (“degree of microbial growth” below) ([1]; Dicyandiamide 5,000 ppm, Challenge 1 (10%), 24 h) is reported as 5c, the “degree of microbial growth” value ([1]; Dicyandiamide 5,000 ppm, Challenge 1 (10%), 72 h) is reported as 5c and the “degree of microbial growth” value ([1]; Dicyandiamide 5,000 ppm, Challenge 2 (5%), 72 h) is reported as 5c. The “degree of microbial growth” value ([1]; Dicyandiamide 5,000 ppm, Challenge 3 (2.5%), 24 h) was 5c, the dilution plate count ([1]; Dicyandiamide 5,000 ppm, Challenge 3 (2.5%), 72 h) was 8.0 × 10^6 and the “degree of microbial growth” value ([1]; Dicyandiamide 10,000 ppm, Challenge 1 (10%), 24 h) was 5c. For the same compound, the “degree of microbial growth” value ([1]; Dicyandiamide 10,000 ppm, Challenge 1 (10%), 72 h) was 1 (a “1” ranking indicates one (1) through five (5) observed colony forming unit (cfu), i.e., the plate was very lightly contaminated), the “degree of microbial growth” value ([1]; Dicyandiamide 10,000 ppm, Challenge 2 (5%), 72 h) was 5 (a “5” ranking indicates greater than (45) cfu, i.e., the plate was severely contaminated) and the “degree of microbial growth” value ([1]; Dicyandiamide 10,000 ppm, Challenge 3 (2.5%), 24 h) was 5 (a “5” ranking indicates greater than (45) cfu, i.e., the plate was severely contaminated). The dilution plate count ([1]; Dicyandiamide 10,000 ppm, Challenge 3 (2.5%), 72 h) was 4.2 × 10^6, the “efficacy of dicyandiamide alone compared to the blank” value ([1]; Table 1, not in combination with BIT) was “no significant difference compared to the blank” and the “degree of microbial growth” value ([2]; Challenge 1 (10%), 24 h) was 5c. For the same compound, the “degree of microbial growth” value ([2]; Challenge 1 (10%), 72 h) was 5c, the “degree of microbial growth” value ([2]; Challenge 2 (5%), 72 h) was 5c and the “degree of microbial growth” value ([2]; Challenge 3 (2.5%), 24 h) was 5c. The dilution plate count ([2]; Challenge 3 (2.5%), 72 h) was 2.4 × 10^7.

In the case of `Cn1sccc1=O` [MIT − 50, 2-methyl-4-isothiazolin-3-one], the “degree of microbial growth” value ([3]; MIT 15 ppm as active (MIT-50 30 ppm), 1st challenge, 24) is reported as 5 (a “5” ranking indicates greater than (45) cfu, i.e., the plate was severely contaminated), the “degree of microbial growth” value ([3]; MIT 15 ppm as active (MIT-50 30 ppm), 1st challenge, 72) is reported as 5 (a “5” ranking indicates greater than (45) cfu, i.e., the plate was severely contaminated) and the “degree of microbial growth” value ([3]; MIT 15 ppm as active (MIT-50 30 ppm), 2nd challenge, 72) is reported as 5 (a “5” ranking indicates greater than (45) cfu, i.e., the plate was severely contaminated). The “degree of microbial growth” value ([3]; MIT 15 ppm as active (MIT-50 30 ppm), 3rd challenge, 24) was 5 (a “5” ranking indicates greater than (45) cfu, i.e., the plate was severely contaminated), the “degree of microbial growth” value ([3]; MIT 15 ppm as active (MIT-50 30 ppm), 3rd challenge, 72) was 5 (a “5” ranking indicates greater than (45) cfu, i.e., the plate was severely contaminated) and the “degree of microbial growth” value ([3]; MIT 20 ppm as active (MIT-50 40 ppm), 1st challenge, 24) was 5 (a “5” ranking indicates greater than (45) cfu, i.e., the plate was severely contaminated). For the same compound, the “degree of microbial growth” value ([3]; MIT 20 ppm as active (MIT-50 40 ppm), 1st challenge, 72) was 5 (a “5” ranking indicates greater than (45) cfu, i.e., the plate was severely contaminated), the “degree of microbial growth” value ([3]; MIT 20 ppm as active (MIT-50 40 ppm), 2nd challenge, 72) was 5 (a “5” ranking indicates greater than (45) cfu, i.e., the plate was severely contaminated) and the “degree of microbial growth” value ([3]; MIT 20 ppm as active (MIT-50 40 ppm), 3rd challenge, 24) was 5 (a “5” ranking indicates greater than (45) cfu, i.e., the plate was severely contaminated). The “degree of microbial growth” value ([3]; MIT 20 ppm as active (MIT-50 40 ppm), 3rd challenge, 72) was 5 (a “5” ranking indicates greater than (45) cfu, i.e., the plate was severely contaminated), the “degree of microbial growth” value ([3]; MIT 25 ppm as active (MIT-50 50 ppm), 1st challenge, 24) was 5 (a “5” ranking indicates greater than (45) cfu, i.e., the plate was severely contaminated) and the “degree of microbial growth” value ([3]; MIT 25 ppm as active (MIT-50 50 ppm), 1st challenge, 72) was 2 (a “2” ranking indicates six (6) through fifteen (15) cfu, i.e., the plate was lightly contaminated). The “degree of microbial growth” value ([3]; MIT 25 ppm as active (MIT-50 50 ppm), 2nd challenge, 72) was 5 (a “5” ranking indicates greater than (45) cfu, i.e., the plate was severely contaminated), the “degree of microbial growth” value ([3]; MIT 25 ppm as active (MIT-50 50 ppm), 3rd challenge, 24) was 5 (a “5” ranking indicates greater than (45) cfu, i.e., the plate was severely contaminated) and the “degree of microbial growth” value ([3]; MIT 25 ppm as active (MIT-50 50 ppm), 3rd challenge, 72) was 5 (a “5” ranking indicates greater than (45) cfu, i.e., the plate was severely contaminated). The “passing result of challenge test” value ([3]; MIT 30 ppm as active (MIT-50 60 ppm)) was “MIT − 50 60 ppm (30)*”, the “degree of microbial growth” value ([3]; MIT 30 ppm as active (MIT-50 60 ppm), 1st challenge, 24) was 5 (a “5” ranking indicates greater than (45) cfu, i.e., the plate was severely contaminated) and the “degree of microbial growth” value ([3]; MIT 30 ppm as active (MIT-50 60 ppm), 1st challenge, 72) was 0. For the same compound, the “degree of microbial growth” value ([3]; MIT 30 ppm as active (MIT-50 60 ppm), 2nd challenge, 72) was 5 (a “5” ranking indicates greater than (45) cfu, i.e., the plate was severely contaminated), the “degree of microbial growth” value ([3]; MIT 30 ppm as active (MIT-50 60 ppm), 3rd challenge, 24) was 5 (a “5” ranking indicates greater than (45) cfu, i.e., the plate was severely contaminated) and the “degree of microbial growth” value ([3]; MIT 30 ppm as active (MIT-50 60 ppm), 3rd challenge, 72) was 0. The “passing result of challenge test” value ([3]; MIT 35 ppm as active (MIT-50 70 ppm)) was “MIT − 50 70 ppm (35)*”, the “degree of microbial growth” value ([3]; MIT 35 ppm as active (MIT-50 70 ppm), 1st challenge, 24) was 5 (a “5” ranking indicates greater than (45) cfu, i.e., the plate was severely contaminated) and the “degree of microbial growth” value ([3]; MIT 35 ppm as active (MIT-50 70 ppm), 1st challenge, 72) was 0. For the same compound, the “degree of microbial growth” value ([3]; MIT 35 ppm as active (MIT-50 70 ppm), 2nd challenge, 72) was 0, the “degree of microbial growth” value ([3]; MIT 35 ppm as active (MIT-50 70 ppm), 3rd challenge, 24) was 5 (a “5” ranking indicates greater than (45) cfu, i.e., the plate was severely contaminated) and the “degree of microbial growth” value ([3]; MIT 35 ppm as active (MIT-50 70 ppm), 3rd challenge, 72) was 0. For the same compound, the “MIT concentration giving passing results” value ([3]; MIT alone, no guanidine enhancer) was ≥ 30 ppm.
